Measurements taken from patent US20120230918A1, “NON-INVASIVE IN VIVO OPTICAL IMAGING METHOD” (Hoffmann-La-Roche Inc., priority 2009, published 2012).

Legend:
[1] = injected i.v. into mice; cited from earlier work
in vivo [2] = settings: female, BALB/c nude, mouse, eye region (fluorescence signal), iv, 20 μg/200 μl
Procedure: Female BALB/c nude mice received inhalation anaesthesia, were placed in the imaging chamber (FIG. 3) and injected i.v. with a dose of 20 μg/200 μl. The fluorescence signal intensity measurements in the eye was started 10 sec before i.v. injection of ICG and images were recorded every second with an acquisition time of 500 ms over a period of 8 minutes. ICG was excited with light at a wavelength range from 671 to 705 nm and the emission was detected at 820 nm.
Female BALB/c nude received inhalation anesthesia, were placed into the imaging chamber and injected i.v. with ICG (20 μg/200 μl). The fluorescence signal intensity was measured starting 10 sec before injection of ICG. Images in the region of interest were recorded every second with an acquisition time of 500 ms over a period of 8 min. ICG was excited with light at a wavelength range from 671 to 705 nm and the emission was detected at 820 nm. The fluorescence intensity from these regions were then calculated and plotted as a function of time.
Female BALB/c nude mice received inhalation anesthesia, were placed in the imaging chamber (FIG. 3) and injected i.v. with a dose of 20 μg/200 μl.

in vivo [3] = settings: BALB/c nude, mouse, eye (fluorescence signal intensity in the eye region), iv, 20 μg/200 μl
Procedure: (§1) We first evaluated the technical feasibility of this new approach by using indocyanine green (ICG) a fluorescent dye. […] Female BALB/c nude mice received inhalation anaesthesia, were placed in the imaging chamber (FIG. 3) and injected i.v. with a dose of 20 μg/200 μl. The fluorescence signal intensity measurements in the eye was started 10 sec before i.v. injection of ICG and images were recorded every second with an acquisition time of 500 ms over a period of 8 minutes. ICG was excited with light at a wavelength range from 671 to 705 nm and the emission was detected at 820 nm. […] In a second experiment, a BALB/c nude mouse with a s.c. growing tumor (Calu3) was injected with ICG i.v. and signal intensity in eye, liver, kidney, brain and the tumor region was monitored.
(§2) The fluorescence signal intensity in Calu3 xenograft was measured as described before. ROI were identified for the eye, liver, kidney, brain and s.c. growing tumor using the anatomical pictures of the subjects. The fluorescence intensity from these regions were then calculated and plotted as a function of time.
(§3) In a second experiment, a BALB/c nude mouse with a s.c. growing tumor (Calu3) was injected with ICG i.v. and signal intensity in eye, liver, kidney, brain and the tumor region was monitored.

[4] = Fluorescence signal intensity of ICG in eye, liver, kidney, brain and tumor region of a mouse with s.c. Calu3 tumor; settings: second experiment, ICG i.v., BALB/c nude mouse with s.c. Calu3 tumor
Procedure: as §1, §2, §3

[5] = after i.v. injection; cited from earlier work
[6] = tested on: BMP-2 induced upregulation of Hepcidin mRNA in HepG2 cells; test: Block of BMP-2 induced upregulation of Hepcidin mRNA in HepG2 cells; assay type: cell-based; settings: in vitro

CC1(C)C(/C=C/C=C/C=C/C=C2\N(CCCCS(=O)(=O)O)c3ccc4ccccc4c3C2(C)C)=[N+](CCCCS(=O)(=O)[O-])c2ccc3ccccc3c21 [ICG, Indocyanine green]
organ of accumulation [1]: accumulates in the liver | time in which cleared from the circulation [1]: 2 to 4 min | Tmax (in vivo [2]): 2 min | half-life (in vivo [2]): 6.6 min | Tmax (in vivo [3]): 1.2 min | half-life (in vivo [3]): 5.4 min | accumulation in the liver, time of reaching a plateau [4]: 3.8 min

NCCC(O)(P(=O)(O)O)P(=O)(O)O [Pamidronate]
serum half life [5]: 20 to 30 min

B1: non-labeled Hemojuvelin: non-labeled Hemojuvelin (protein, UniProt Q6ZVN8 36-400, looked up)
Hemojuvelin: QCKILRCNAEYVSSTLSLRGGGSSGALRGGGGGGRGGGVGSGGLCRALRSYALCTRRTARTCRGDLAFHSAVHGIEDLMIQHNCSRQGPTAPPPPRGPALPGAGSGLPAPDPCDYEGRFSRLHGRPPGFLHCASFGDPHVRSFHHHFHTCRVQGAWPLLDNDFLFVQATSSPMALGANATATRKLTIIFKNMQECIDQKVYQAEVDNLPVAFEDGSINGGDRPGGSSLSIQTANPGNHVEIQAAYIGTTIIIRQTAGQLSFSIKVAEDVAMAFSAEQDLQLCVGGCPPSQRLSRSERNRRGAITIDTARRLCKEGLPVEDAYFHSCVFDVLISGDPNFTVAAQAALEDARAFLPDLEKLHLFPSD
ability to block BMP-2 induced upregulation of Hepcidin mRNA, non-labeled versus Cy5-labeled [6]: did not differ

B2: Cy5-labeled Hemojuvelin: Hemojuvelin labeled with Cy5 (conjugate, UniProt Q6ZVN8 36-400, looked up)
Hemojuvelin: B1 Hemojuvelin
modifications: Cy5 label
ability to block BMP-2 induced upregulation of Hepcidin mRNA, non-labeled versus Cy5-labeled [6]: did not differ
